Experimental data reported in US20120003270A1, “6-SUBSTITUTED ISOFLAVONOID COMPOUNDS AND USES THEREOF” (priority 2008, published 2012).

Experiments:
[1] = tested on: TXA2; experiment: TXA2 synthesis in RAW 264.7 (ELISA); assay type: cell-based, mouse; settings: LPS 50 ng/ml, 16 hrs
Description: The mouse macrophage cell line RAW 264.7 was cultured in DMEM supplemented with foetal calf serum (FCS), 2 mM glutamine and 50 U/ml penicillin/streptomycin. Cells were treated with either test compounds (in 0.025% DMSO) or vehicle alone, and added one hour before 50 ng/ml LPS. After incubation for 16 hrs, culture media was collected for PGE2 or TXB2 measurement by ELISA (Cayman Chemical), and TNFα measurement using an ELISA (Becton Dickinson).

[2] = tested on: PMA-induced ear swelling; experiment: Murine ear inflammation assay, PMA; assay type: in vivo, mouse; settings: 25 mg/kg i/p
Description: Groups of 5-6 female BALB/c mice (ARC, WA, Australia), weighing 15-21 g were injected intraperitoneally (i/p) with selected compounds of the formula (I) at 25 mg/kg delivered in polyethylene glycol (PEG) 400: phosphate buffered saline (PBS) 1:1 or ethanol: propanediol:PBS 4:9:7 either 30 min prior to or immediately before the inflammogen was applied to the ears. Mice were anaesthetised using isoflurane and baseline thickness of both ears was measured using a spring micrometer. Each mouse received a total of […] of either AA in ethanol (50 mg/ml or 200 mg/ml) or PMA in either ethanol or acetone (0.2 mg/ml) applied to the inner and outer surfaces of each pinna (i.e. 0.5 mg or 2 mg AA or 2 μg PMA per ear). Mice were anaesthetised again to re-measure the ears at 1 hr post-AA application and 5 hr after PMA. The difference in ear swelling pre- and post-application of inflammogen for each ear was calculated, and the average for the two ears of each mouse taken. The difference in mean swelling of each test group compared to the group given vehicle alone was calculated using a general ANOVA using Dunnett's Multiple Comparison test when multiple compounds were tested in the one experiment or a two-tailed unpaired t-test when only one compound was tested (Prism 4, Graphpad Software).

[3] = tested on: splenocytes (T and B cells); experiment: Mitogen-stimulated splenocyte proliferation (MTT); assay type: cell-based, mouse; settings: 10 μM, 3 day incubation, ConA or LPS
Description: Male Skh-1:HR1 (hairless) mice, approximately six weeks old were killed by cervical dislocation. Single cell suspensions were made from the spleen and erythrocytes were lysed in buffer (0.14M NH4Cl, 17 mM Tris, pH 7.2). The remaining splenocytes were cultured in RPMI-1640 (Gibco) supplemented with 10% (v:v) FBS, 200 mM L-glutamine, penicillin/streptomycin and […] 2-mercaptoethanol. Splenocytes were added to quadruplicate wells containing either concanavalin A (ConA, Sigma-Aldrich—0.4 μg/well), LPS (Sigma-Aldrich—1 μg/well) or no mitogen, as well 10 μM of test compound in DMSO. Samples were analysed after a 3 day incubation at 37° C. in 5% CO2 in air. Methylthiazoletetrazolium (MTT) is bioreduced by viable cells into a coloured formazan product that is soluble in DMSO. Thus the quantity of formazan product is directly proportional to the number of living cells in culture, and can be measured using a spectrophotometer at 570 nm. MTT was added to each well, incubated for a further 4 hrs and then colour developed with 0.04N HCl in isopropanol. Culture supernatants were stored after collection at −80° C. and both T and B cells analysed by ELISA (BD Biosciences) for IFN-γ (a Th-1 cytokine) and for T cells alone, IL-6 (a Th-2 cytokine).

[4] = tested on: low density lipoprotein (LDL); experiment: Cu2+-induced oxidation of LDL (FOX assay); assay type: biochemical; design: lipid peroxide formation: unit not given here
Description: Blood was collected by venipuncture and plasma separated by centrifugation. LDL was then isolated from plasma using a 4-step sodium chloride density gradient and ultracentrifuged at 200,000 g for 20 hours at 4° C. The collect LDL was purified by passage through gel filtration PD10 column to remove excess salt and EDTA, and stored in the dark at 4° C. to prevent auto-oxidation and used with two weeks of isolation. The LDL cholesterol content was measure using a standard enzymatic method and protein concentration determined by the Lowry method using BSA as the standard.
On the day of each experiment a 2 mL aliquot of LDL was passed through a second PD10 column and diluted with chelex treated PBS (100 mM) to give a standard protein concentration of 0.1 mg/mL, ie final concentration per reaction. Oxidation reactions were initiated by the addition of freshly prepared Cu^2+ solution, such that the final concentration of CuSO4 was 5 μM. […] The extent of lipoprotein oxidation was determined by measuring the formation of lipid-peroxides on aliquots removed every 30-minute over a 3-hour period. Peroxides were determined at each time point by the ferrous oxidation-xylenol orange (FOX) assay using standard hydrogen peroxide curve (5 to 200 μM). Compound (1) was examined in at least two separate experiments performed on separate days.

CN(C)Cc1cc2c(cc1O)OCC(c1ccc(O)cc1)=C2 [Compound (1)]
TXB2 ([1]; 1 μM): 1333.17 ± 121.78 pg/mL
TXB2 ([1]; 10 μM): 1149.14 ± 480.27 pg/mL
% Change compared with vehicle [2]: −12.3%
Change in ear thickness (mean ± SD, ×0.01 mm) ([2]; 5 hr after PMA): 28.9 ± 3.071 ×0.01 mm
Effect on splenocyte (T and B cell) numbers [3]: markedly and significantly immunosuppressive to T cells and to a lesser extent, B cells
lipid peroxide formation ([4]; Compound (1) 100 μM + Cu++ 5 μM, no LDL, 0 min): 10.13 ± 2.82
lipid peroxide formation ([4]; Compound (1) 100 μM + Cu++ 5 μM, no LDL, 30 min): 32.09 ± 11.15
lipid peroxide formation ([4]; Compound (1) 100 μM + Cu++ 5 μM, no LDL, 60 min): 46.21 ± 20.68
lipid peroxide formation ([4]; Compound (1) 100 μM + Cu++ 5 μM, no LDL, 90 min): 58.19 ± 28.98
lipid peroxide formation ([4]; Compound (1) 100 μM + Cu++ 5 μM, no LDL, 120 min): 69.46 ± 35.33
lipid peroxide formation ([4]; Compound (1) 100 μM + Cu++ 5 μM, no LDL, 180 min): 76.60 ± 40.17
IC50 ([4]; LDL 0.1 mg/mL, CuSO4 5 μM, read-out: IC50, concentration at which 50% of the LDL oxidation was inhibited): 580 nM
lipid peroxide formation ([4]; LDL 0.1 mg/ml + compound (1) 0.1 μM + Cu++ 5 μM, 0 min): 11.54 ± 1.96
lipid peroxide formation ([4]; LDL 0.1 mg/ml + compound (1) 0.1 μM + Cu++ 5 μM, 30 min): 14.50 ± 0.28
lipid peroxide formation ([4]; LDL 0.1 mg/ml + compound (1) 0.1 μM + Cu++ 5 μM, 60 min): 26.86 ± 0.65
lipid peroxide formation ([4]; LDL 0.1 mg/ml + compound (1) 0.1 μM + Cu++ 5 μM, 90 min): 89.43 ± 17.03
lipid peroxide formation ([4]; LDL 0.1 mg/ml + compound (1) 0.1 μM + Cu++ 5 μM, 120 min): 161.78 ± 1.44
lipid peroxide formation ([4]; LDL 0.1 mg/ml + compound (1) 0.1 μM + Cu++ 5 μM, 180 min): 193.20 ± 25.05
lipid peroxide formation ([4]; LDL 0.1 mg/ml + compound (1) 1.0 μM + Cu++ 5 μM, 0 min): 11.31 ± 1.95
lipid peroxide formation ([4]; LDL 0.1 mg/ml + compound (1) 1.0 μM + Cu++ 5 μM, 30 min): 12.83 ± 2.28
lipid peroxide formation ([4]; LDL 0.1 mg/ml + compound (1) 1.0 μM + Cu++ 5 μM, 60 min): 13.11 ± 2.70
lipid peroxide formation ([4]; LDL 0.1 mg/ml + compound (1) 1.0 μM + Cu++ 5 μM, 90 min): 14.78 ± 1.06
lipid peroxide formation ([4]; LDL 0.1 mg/ml + compound (1) 1.0 μM + Cu++ 5 μM, 120 min): 20.39 ± 2.95
lipid peroxide formation ([4]; LDL 0.1 mg/ml + compound (1) 1.0 μM + Cu++ 5 μM, 180 min): 102.30 ± 37.30
lipid peroxide formation ([4]; LDL 0.1 mg/ml + compound (1) 10 μM + Cu++ 5 μM, 0 min): 11.54 ± 1.96
lipid peroxide formation ([4]; LDL 0.1 mg/ml + compound (1) 10 μM + Cu++ 5 μM, 30 min): 16.77 ± 2.55
lipid peroxide formation ([4]; LDL 0.1 mg/ml + compound (1) 10 μM + Cu++ 5 μM, 60 min): 19.56 ± 4.55
lipid peroxide formation ([4]; LDL 0.1 mg/ml + compound (1) 10 μM + Cu++ 5 μM, 90 min): 20.84 ± 5.30
lipid peroxide formation ([4]; LDL 0.1 mg/ml + compound (1) 10 μM + Cu++ 5 μM, 120 min): 22.80 ± 3.39
lipid peroxide formation ([4]; LDL 0.1 mg/ml + compound (1) 10 μM + Cu++ 5 μM, 180 min): 20.30 ± 4.97
lipid peroxide formation ([4]; LDL 0.1 mg/ml + compound (1) 100 μM + Cu++ 5 μM, 0 min): 13.83 ± 1.77
lipid peroxide formation ([4]; LDL 0.1 mg/ml + compound (1) 100 μM + Cu++ 5 μM, 30 min): 29.71 ± 6.85
lipid peroxide formation ([4]; LDL 0.1 mg/ml + compound (1) 100 μM + Cu++ 5 μM, 60 min): 39.57 ± 10.67
lipid peroxide formation ([4]; LDL 0.1 mg/ml + compound (1) 100 μM + Cu++ 5 μM, 90 min): 78.85 ± 33.54
lipid peroxide formation ([4]; LDL 0.1 mg/ml + compound (1) 100 μM + Cu++ 5 μM, 120 min): 54.24 ± 9.58
lipid peroxide formation ([4]; LDL 0.1 mg/ml + compound (1) 100 μM + Cu++ 5 μM, 180 min): 62.50 ± 19.58
